Data taken from patent publication US20240398775A1, “PHARMACEUTICAL COMPOSITION FOR USE IN TREATING COGNITIVE DECLINE OR FOR USE IN TREATING OVERWEIGHT OR OBESITY” (University of the Ryukyus, priority 2021, published 2024).

Key:
NMDA receptor (NMDAR) = experiment: Ca2+ imaging (Fluo-3) of hippocampal brain slices, NMDA + glycine application (NMDA reaction); type: cell-based, mouse
[1] = test system: dendritic arbors and spines of hippocampus; experiment: Golgi staining of hippocampus; type: in vivo, mouse; details: HFD mice with PER
Excerpt: (§1) Coronal sections of mouse brains from Bregma-0.94 mm to Bregma-4.04 mm (5 mm wide, including the entire hippocampus from dorsal to ventral, medial to lateral) were fixed with 4% paraformaldehyde for 2 days, and then stained with the Golgi Cox staining system (FD Rapid GolgiStain™ Kit, MD 21041, USA). The impregnated tissues were cut into 100 μm sections and counterstained with crystal violet, and the total number of 15 μm spines on the apical dendrites of CA1 and DG and the percentage of morphologic spines (thin, stubby, mushroom) were examined using an Axio Observer Z1 (Carl Zeiss, Germany). Another set of paraformaldehyde-fixed 5 mm wide coronal sections of the brain, including the entire hippocampus, were processed using the passive CLARITY technique (PACT) (62) and examined through Lightsheet Z.1 (Carl Zeiss, Germany) using a 10× clear objective lens, and 3D images of Thy1-YFPH transgenic mice (the Jackson Laboratory, stock number: 003709, strain name: B6. Cg-Tg. (Thy1-YFP) 16Jrs/J) (63, 64), HFD-fed mice, and whole hippocampus of the HFD-fed mice with PER treatment. were acquired respectively. Maximum intensity projection images were acquired along the Z dimension, time dimension, and channel dimension to create an output image with the pixel containing the maximum value for all images in the stack at a particular pixel position. With the Z-stack function, a series of XY images at different focus positions can be acquired to create Z-stack. In this manner, a 3D dataset of 400 μm×400 μm was obtained from the specimens, dorsal to lateral and medial to lateral for each of CA1, CA3, and DG.

NL-G-F(−/−) mice = experiment: Hippocampus function-dependent fear conditioning test in NL-G-F(−/−) mice; type: in vivo, mouse; details: perampanel alone 5 mg/kg or 10 mg/kg
Description: Contextual fear conditioning was applied with slight modifications to published protocols (50). Mice were transferred to the animal experimental room and allowed to acclimatize for at least 30 minutes prior to contextual fear conditioning training. Next, the mice were placed in a foot shock system model MK-450 MSQ (Muromachi Kikai Co., Ltd., Japan), searching was performed for 2 minutes, and then 3 electric foot shocks (0.8 mA, 2 sec, 2 min interval) were performed. After mice were left in the apparatus for an additional 1 minute, the animals were removed.
NL-G-F(−/−) mice, a dementia model, were administered with memantine (mema), exercise, memantine and exercise, memantine and perampanel, and perampanel alone (5 mg/kg or 10 mg/kg), and subjected to behavioral experiments. As the behavior test, a novel object recognition test and a hippocampus function-dependent fear conditioning test were performed. Memantine is an antagonist of the NMDA receptor, but has distinct properties from other NMDA receptor antagonists (refer to Hokama Y., et al., Neuro Oncology, 2022, noac162). That is, memantine is a drug that works only when glutamic acid is excessively present in the brain.

[2] = test system: Thy-1+-eYFP neuronal cells; experiment: Quantification of Thy1-eYFP neurons (CLARITY); type: in vivo, mouse; details: HFD mice treated with PER, p<0.001, n=4
Excerpt: as §1, with “With the Z-stack function, a series of XY images at different focus positions can be acquired to create Z-stack. In this manner, a 3D dataset of 400 μm×400 μm was obtained from the specimens, dorsal to lateral and medial to lateral for each of CA1, CA3, and DG.” left out

MAP2, GluA1, GluA2, DCX = experiment: Immunohistochemical analysis (MAP2, GluA1, GluA2, DCX) of hippocampus; type: in vivo, mouse
Excerpt: Mouse brains were perfusion-fixed with 4% paraformaldehyde, embedded in paraffin, and cut into 4 micrometer thick sections to be used for immunohistochemical analysis of monoclonal antibodies against DCX (E-6 monoclonal, 1:50, Santa Cruz Biotechnology Inc, Dallas, USA), MAP2ab (AP-20 monoclonal, 1:100, SIGMA-ALDRICH, St. Louis, USA), GluA1 ([…] polyclonal, 1:100, EMD Millipore Corp., Burlington, USA), and GluA2 (AB 1768-1 polyclonal, 1:5, EMD Millipore Corp., Burlington, USA).
The immunostained region in each of the expression regions of MAP2, GluA1, and GluA2 was acquired using a ZVI format AxioVision (Carl Zeiss, Germany) microscope (objective lens 20×). Generation of data image processing with image segmentation was performed using machine learning with ZEN Intelliesis software. 1000 or more cells were examined in each group. One-way variance analysis was used for testing variance among the three groups excluding data of 3SD or higher. Then, the following number of samples was used.

[3] = HFD-fed mice with oral PER 5 mg/kg/day, NMDA 50 μM + glycine 10 μM, N = 5

N#Cc1ccccc1-c1cc(-c2ccccn2)cn(-c2ccccc2)c1=O [PER, 3-(2-cyanophenyl)-5-(2-pyridyl)-1-phenyl-1,2-dihydropyridine-2-one]
NMDA reaction CA1 (maximum value of NF525) (NMDA receptor (NMDAR); [3]): 1.20 ± 0.08 | NMDA reaction CA2 (maximum value of NF525) (NMDA receptor (NMDAR); [3]): 1.20 ± 0.09 | NMDA reaction CA3 (maximum value of NF525) (NMDA receptor (NMDAR); [3]): 1.12 ± 0.04 | NMDA reaction DG (maximum value of NF525) (NMDA receptor (NMDAR); [3]): 1.17 ± 0.04 | NMDA reaction EC (maximum value of NF525) (NMDA receptor (NMDAR); [3]): 1.16 ± 0.06 | signal transduction via the NMDAR (NMDA receptor (NMDAR); hippocampal slices from mice fed HFD and PER 5 mg/kg/day orally by hydrogel): simultaneously restored | NMDAR function in all hippocampal subregions (NMDA receptor (NMDAR); ob/ob mice, PER administration, p<0.05): restoration of NMDAR function | Golgi staining positive cells in DG [1]: restored | integrity of dendritic arbors in CA1 (Golgi staining) [1]: restored | spine maturation in DG [1]: immature spines became mature | cognitive function in hippocampus function-dependent fear conditioning test (NL-G-F(−/−) mice): remarkable improvement in cognitive function | number of Thy-1+-eYFP neuronal cells in CA3 [2]: significantly restored | integrity of dendritic arbors in CA1 (anti-MAP2 antibody staining) (MAP2, GluA1, GluA2, DCX; HFD mice with PER): completely restored | GluA2/GluA1 ratio (immunostaining) (MAP2, GluA1, GluA2, DCX; HFD mice with PER treatment): increased | immunostaining reaction of GluA1 in CA1 (MAP2, GluA1, GluA2, DCX; HFD mice with PER treatment): decreased | double cortin positive cells (MAP2, GluA1, GluA2, DCX; HFD mice with PER, DG): increase | GluA1 expression in CA1 (immunoreactive region) (MAP2, GluA1, GluA2, DCX; ob/ob mice with PER): restored | ratio of GluA2/GluA1 (immunoreactive region) (MAP2, GluA1, GluA2, DCX; ob/ob mice with PER): restored | integrity of the dendritic arbors (MAP2 staining) (MAP2, GluA1, GluA2, DCX; ob/ob mice, PER for 1 week or 12 weeks): significantly more restored by 12 week administration than by 1 week administration | maturation of the protrusions of DCX-positive cells (MAP2, GluA1, GluA2, DCX; ob/ob mice, PER for 12 weeks): progressed
